Tested on: IL-4 induced STAT6 phosphorylation in THP-1 human monocytic cells
Conditions: THP-1 cells

Compound | THP-1 IL4 pIC50
COC(=O)CN1[C@@H]2CC[C@H]1C[C@H](Nc1nc(Nc3cc(C)[nH]n3)cc3ncccc13)C2 [Example 1-1] | C (C represents a pEC50 value <6.7 (EC50>200 nM))
COC(=O)CCCN1[C@@H]2CC[C@H]1C[C@H](Nc1nc(Nc3cc(C)[nH]n3)cc3ncccc13)C2 [Example 1-3] | C (C represents a pEC50 value <6.7 (EC50>200 nM))
Cc1cc(Nc2cc3ncccc3c(N[C@@H]3C[C@H]4CC[C@@H](C3)N4CC(N)=O)n2)n[nH]1 [Example 1-6] | C (C represents a pEC50 value <6.7 (EC50>200 nM))
CNC(=O)CN1[C@@H]2CC[C@H]1C[C@H](Nc1nc(Nc3cc(C)[nH]n3)cc3ncccc13)C2 [Example 1-7] | C (C represents a pEC50 value <6.7 (EC50>200 nM))
Cc1cc(Nc2cc3ncccc3c(N[C@@H]3C[C@H]4CC[C@@H](C3)N4CC(=O)N(C)C)n2)n[nH]1 [Example 1-8] | C (C represents a pEC50 value <6.7 (EC50>200 nM))
Cc1cc(Nc2cc3ncccc3c(N[C@@H]3C[C@H]4CC[C@@H](C3)N4CCCF)n2)n[nH]1 [Example 1-9] | C (C represents a pEC50 value <6.7 (EC50>200 nM))
Cc1cc(Nc2cc3ncccc3c(N[C@@H]3C[C@H]4CC[C@@H](C3)N4CCC(F)(F)F)n2)n[nH]1 [Example 1-10] | C (C represents a pEC50 value <6.7 (EC50>200 nM))
Cc1cc(Nc2cc3ncccc3c(N[C@@H]3C[C@H]4CC[C@@H](C3)N4CC(=O)N[C@@H]3CCOC3=O)n2)n[nH]1 [Example 1-11] | C (C represents a pEC50 value <6.7 (EC50>200 nM))
Cc1cc(Nc2cc3ncccc3c(N[C@@H]3C[C@H]4CC[C@@H](C3)N4CC(=O)N[C@H]3CCOC3=O)n2)n[nH]1 [Example 1-12] | C (C represents a pEC50 value <6.7 (EC50>200 nM))
Cc1cc(Nc2cc3ncccc3c(N[C@@H]3C[C@H]4CC[C@@H](C3)N4CC(C)C)n2)n[nH]1 [Example 1-13] | A (A represents a pEC50 value ≥7.5 (EC50≤32 nM))
COCCCN1[C@@H]2CC[C@H]1C[C@H](Nc1nc(Nc3cc(C)[nH]n3)cc3ncccc13)C2 [Example 1-15] | C (C represents a pEC50 value <6.7 (EC50>200 nM))
Cc1cc(Nc2cc3ncccc3c(N[C@@H]3C[C@H]4CC[C@@H](C3)N4C(C)CC#N)n2)n[nH]1 (stereo partly drawn) [Example 1-21] | A (A represents a pEC50 value ≥7.5 (EC50≤32 nM))
Cc1cc(Nc2cc3ncccc3c(N[C@@H]3C[C@H]4CC[C@@H](C3)N4C[C@H]3CCC(=O)O3)n2)n[nH]1 [Example 1-29] | C (C represents a pEC50 value <6.7 (EC50>200 nM))
COC(=O)CN1[C@@H]2CCC[C@H]1C[C@H](Nc1nc(Nc3cc(C)[nH]n3)cc3ncccc13)C2 [Example 1-32] | C (C represents a pEC50 value <6.7 (EC50>200 nM))
COC(=O)CCN1[C@@H]2CCC[C@H]1C[C@H](Nc1nc(Nc3cc(C)[nH]n3)cc3ncccc13)C2 [Example 1-33] | C (C represents a pEC50 value <6.7 (EC50>200 nM))
COC(=O)CCCN1[C@@H]2CCC[C@H]1C[C@H](Nc1nc(Nc3cc(C)[nH]n3)cc3ncccc13)C2 [Example 1-34] | C (C represents a pEC50 value <6.7 (EC50>200 nM))
Cc1cc(Nc2cc3ncccc3c(N[C@@H]3C[C@H]4CCC[C@@H](C3)N4CC(=O)OC(C)C)n2)n[nH]1 [Example 1-35] | A (A represents a pEC50 value ≥7.5 (EC50≤32 nM))
Cc1cc(Nc2cc3ncccc3c(N[C@@H]3C[C@H]4CCC[C@@H](C3)N4CC(=O)N[C@@H]3CCOC3=O)n2)n[nH]1 [Example 1-41] | C (C represents a pEC50 value <6.7 (EC50>200 nM))
Cc1cc(Nc2cc3ncccc3c(N[C@@H]3C[C@H]4CCC[C@@H](C3)N4CC(=O)N[C@H]3CCOC3=O)n2)n[nH]1 [Example 1-42] | C (C represents a pEC50 value <6.7 (EC50>200 nM))
Cc1cc(Nc2cc3ncccc3c(N[C@@H]3C[C@H]4CCC[C@@H](C3)N4Cc3cccc(O)c3)n2)n[nH]1 [Example 1-49] | A (A represents a pEC50 value ≥7.5 (EC50≤32 nM))
CCOCC(=O)N1[C@@H]2CC[C@H]1C[C@H](Nc1nc(Nc3cc(C)[nH]n3)cc3ncccc13)C2 [Example 2-4] | C (C represents a pEC50 value <6.7 (EC50>200 nM))
Cc1cc(Nc2cc3ncccc3c(N[C@@H]3C[C@H]4CC[C@@H](C3)N4C(=O)CN(C)C)n2)n[nH]1 [Example 2-5] | C (C represents a pEC50 value <6.7 (EC50>200 nM))
CCC(=O)N1[C@@H]2CCC[C@H]1C[C@H](Nc1nc(Nc3cc(C)[nH]n3)cc3ncccc13)C2 [Example 2-15] | A (A represents a pEC50 value ≥7.5 (EC50≤32 nM))
CCC(C)C(=O)N1C2CCCC1CC(Nc1nc(Nc3cc(C)[nH]n3)cc3ncccc13)C2 (stereo not drawn) [Example 2-18] | A (A represents a pEC50 value ≥7.5 (EC50≤32 nM))

Compound | THP-1 IL4 pIC50
Cc1cc(Nc2cc3ncccc3c(N[C@@H]3C[C@H]4CC[C@@H](C3)N4C(=O)OCC(C)C)n2)n[nH]1 [Example 3-3] | A (A represents a pEC50 value ≥7.5 (EC50≤32 nM))
C=CCOC(=O)N1[C@@H]2CC[C@H]1C[C@H](Nc1nc(Nc3cc(C)[nH]n3)cc3ncccc13)C2 [Example 3-4] | A (A represents a pEC50 value ≥7.5 (EC50≤32 nM))
CCOC(=O)N1[C@@H]2CCC[C@H]1C[C@H](Nc1nc(Nc3cc(C)[nH]n3)cc3ncccc13)C2 [Example 3-6] | A (A represents a pEC50 value ≥7.5 (EC50≤32 nM))
C=CCOC(=O)N1[C@@H]2CCC[C@H]1C[C@H](Nc1nc(Nc3cc(C)[nH]n3)cc3ncccc13)C2 [Example 3-8] | A (A represents a pEC50 value ≥7.5 (EC50≤32 nM))
COCCOC(=O)N1[C@@H]2CCC[C@H]1C[C@H](Nc1nc(Nc3cc(C)[nH]n3)cc3ncccc13)C2 [Example 3-9] | A (A represents a pEC50 value ≥7.5 (EC50≤32 nM))
Cc1cc(Nc2cc3ncccc3c(N[C@@H]3C[C@H]4CCC[C@@H](C3)N4S(C)(=O)=O)n2)n[nH]1 [Example 4-16] | A (A represents a pEC50 value ≥7.5 (EC50≤32 nM))
Cc1cc(Nc2cc3ncccc3c(N[C@@H]3C[C@H]4CCC[C@@H](C3)N4S(=O)(=O)CC(C)C)n2)n[nH]1 [Example 4-17] | A (A represents a pEC50 value ≥7.5 (EC50≤32 nM))
Cc1cc(Nc2cc3ncccc3c(N[C@@H]3C[C@H]4CCC[C@@H](C3)N4S(=O)(=O)C3CNC3)n2)n[nH]1 [Example 4-21] | C (C represents a pEC50 value <6.7 (EC50>200 nM))
C=CCS(=O)(=O)N1[C@@H]2CCC[C@H]1C[C@H](Nc1nc(Nc3cc(C)[nH]n3)cc3ncccc13)C2 [Example 4-22] | A (A represents a pEC50 value ≥7.5 (EC50≤32 nM))
Cc1ccc(S(=O)(=O)N2[C@@H]3CCC[C@H]2C[C@H](Nc2nc(Nc4cc(C)[nH]n4)cc4ncccc24)C3)cn1 [Example 4-25] | A (A represents a pEC50 value ≥7.5 (EC50≤32 nM))
CCS(=O)(=O)N1[C@@H]2CCC[C@H]1C[C@H](Nc1nc(Nc3cc(C)[nH]n3)cc3nc(CN4CCOCC4)ccc13)C2 [Example 5-23] | A (A represents a pEC50 value ≥7.5 (EC50≤32 nM))
Cc1cc(Nc2cc3nc(CN4CCOCC4)ccc3c(N[C@@H]3C[C@H]4CCC[C@@H](C3)N4CCC#N)n2)n[nH]1 [Example 5-26] | A (A represents a pEC50 value ≥7.5 (EC50≤32 nM))
Cc1cc(Nc2cc3nc(CN4CCOCC4)ccc3c(N[C@H]3C[C@H]4CCC[C@@H](C3)N4CC(F)(F)F)n2)n[nH]1 [Example 5-29] | B (B represents a pEC50 value between 6.7 and 7.5 (EC50 between 200 nM and 32 nM))
Cc1cc(Nc2cc3nc(CS(C)(=O)=O)ccc3c(N[C@@H]3C[C@H]4CC[C@@H](C3)N4CCF)n2)n[nH]1 [Example 5-41] | C (C represents a pEC50 value <6.7 (EC50>200 nM))
Cc1cc(Nc2cc3nc(CS(C)(=O)=O)ccc3c(N[C@@H]3C[C@H]4CC[C@@H](C3)N4CCCF)n2)n[nH]1 [Example 5-42] | C (C represents a pEC50 value <6.7 (EC50>200 nM))
Cc1cnc2cc(Nc3cc(C)[nH]n3)nc(N[C@@H]3C[C@H]4CC[C@@H](C3)N4Cc3ccncc3)c2c1 [Example 6-2] | A (A represents a pEC50 value ≥7.5 (EC50≤32 nM))
COc1cnc2cc(Nc3cc(C)[nH]n3)nc(N[C@@H]3C[C@H]4CC[C@@H](C3)N4CCC#N)c2c1 [Example 6-11] | A (A represents a pEC50 value ≥7.5 (EC50≤32 nM))
COc1cnc2cc(Nc3cc(C)[nH]n3)nc(N[C@@H]3C[C@H]4CCC[C@@H](C3)N4C(=O)CN(C)C)c2c1 [Example 6-30] | C (C represents a pEC50 value <6.7 (EC50>200 nM))
COC(=O)c1cnc2cc(Nc3cc(C)[nH]n3)nc(N[C@@H]3C[C@H]4CC[C@@H](C3)N4CCC#N)c2c1 [Example 6-32] | A (A represents a pEC50 value ≥7.5 (EC50≤32 nM))
COC(=O)c1cnc2cc(Nc3cc(C)[nH]n3)nc(N[C@@H]3C[C@H]4CC[C@@H](C3)N4C(=O)CN(C)C)c2c1 [Example 6-39] | C (C represents a pEC50 value <6.7 (EC50>200 nM))
C=CCOC(=O)N1[C@@H]2CC[C@H]1C[C@H](Nc1nc(Nc3cc(C)[nH]n3)cc3ncc(C(=O)OC)cc13)C2 [Example 6-40] | A (A represents a pEC50 value ≥7.5 (EC50≤32 nM))
COC(=O)c1cnc2cc(Nc3cc(C)[nH]n3)nc(N[C@@H]3C[C@H]4CC[C@@H](C3)N4CC(=O)OC(C)C)c2c1 [Example 6-41] | A (A represents a pEC50 value ≥7.5 (EC50≤32 nM))
CNC(=O)CN1[C@@H]2CC[C@H]1C[C@H](Nc1nc(Nc3cc(C)[nH]n3)cc3ncc(C(=O)OC)cc13)C2 [Example 6-42] | C (C represents a pEC50 value <6.7 (EC50>200 nM))
COC(=O)c1cnc2cc(Nc3cc(C)[nH]n3)nc(N[C@@H]3C[C@H]4CC[C@@H](C3)N4C[C@H]3CCC(=O)O3)c2c1 [Example 6-46] | C (C represents a pEC50 value <6.7 (EC50>200 nM))

Source: patent publication US10947254B2, “Methods for treating ulcerative colitis using 3-((1R,3s,5S)-3-((7-((5-methyl-1H-pyrazol-3-yl)amino)-1,6-naphthyridin-5-yl)amino)-8-azabicyclo[3.2.1]octan-8-yl)propanenitrile” (priority 2015, dated 2021)
